Data from US20160333419A1, “GENE SIGNATURES ASSOCIATED WITH SENSITIVITY TO MDM2 INHIBITORS” (DAIICHI SANKYO COMPANY, LIMITED, priority 2014, published 2016).
pIC50: −log10 of the molar value.

Experiments:
Assay in all cases: OncoPanel cytotoxicity assay
Assay type in all cases: cell-based
5637 = conditions: Homo sapiens, 72 hour incubation
Procedure, shortened: (§1)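 Cells grown in RPMI 1640 with 10% FBS (or a special medium) at 37° C, 5% CO2 were treated 24 hours after seeding for 72 hours with 10 concentrations (3.16-fold dilutions, 0.1% DMSO final). Nuclei were dye-stained and imaged; IC50 was fit from percent of control relative cell count.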

ARH-77 = conditions: Homo sapiens, 72 hour incubation
Procedure, shortened: as §1

AsPC-1 = conditions: Homo sapiens, ASPC1, 72 hour incubation
Procedure, shortened: as §1

BHT-101 = conditions: Homo sapiens, 72 hour incubation
Procedure, shortened: as §1

C-4 I = conditions: Homo sapiens, 72 hour incubation
Procedure, shortened: as §1

CAMA-1 = conditions: Homo sapiens, 72 hour incubation
Procedure, shortened: as §1

Calu6 = conditions: Homo sapiens, Calu-6, 72 hour incubation
Procedure, shortened: as §1

D283 Med = conditions: Homo sapiens, 72 hour incubation
Procedure, shortened: as §1

DOHH-2 = conditions: Homo sapiens, 72 hour incubation
Procedure, shortened: as §1

DU145 = conditions: Homo sapiens, DU-145, 72 hour incubation
Procedure, shortened: as §1

ES-2 = conditions: Homo sapiens, 72 hour incubation
Procedure, shortened: as §1

HCT-15 = conditions: Homo sapiens, 72 hour incubation
Procedure, shortened: as §1

HOS = conditions: Homo sapiens, 72 hour incubation
Procedure, shortened: as §1

HT-1197 = conditions: Homo sapiens, HT1197, 72 hour incubation
Procedure, shortened: as §1

HT1376 = conditions: Homo sapiens, HT-1376, 72 hour incubation
Procedure, shortened: as §1

HUH-6 Clone 5 = conditions: Homo sapiens, HUH-6-clone5, 72 hour incubation
Procedure, shortened: as §1

KATO III = conditions: Homo sapiens, 72 hour incubation
Procedure, shortened: as §1

MALME3M = conditions: Homo sapiens, Malme-3M, 72 hour incubation
Procedure, shortened: as §1

MES-SA = conditions: Homo sapiens, 72 hour incubation
Procedure, shortened: as §1

MG-63 = conditions: Homo sapiens, 72 hour incubation
Procedure, shortened: as §1

MOLT-3 = conditions: Homo sapiens, 72 hour incubation
Procedure, shortened: as §1

MT-3 = conditions: Homo sapiens, 72 hour incubation
Procedure, shortened: as §1

MX1 = conditions: Homo sapiens, 72 hour incubation
Procedure, shortened: as §1

NALM-6 = conditions: Homo sapiens, 72 hour incubation
Procedure, shortened: as §1

NCI-H460 = conditions: Homo sapiens, 72 hour incubation
Procedure, shortened: as §1

RKO-AS45-1 = conditions: Homo sapiens, RKOAS451, 72 hour incubation
Procedure, shortened: as §1

RKOE6 = conditions: Homo sapiens, 72 hour incubation
Procedure, shortened: as §1

RPMI 6666 = conditions: Homo sapiens, 72 hour incubation
Procedure, shortened: as §1

Raji = conditions: Homo sapiens, 72 hour incubation
Procedure, shortened: as §1

SCC-25 = conditions: Homo sapiens, 72 hour incubation
Procedure, shortened: as §1

SHP-77 = conditions: Homo sapiens, SHP77, 72 hour incubation
Procedure, shortened: as §1

SK-LMS-1 = conditions: Homo sapiens, 72 hour incubation
Procedure, shortened: as §1

SK-MEL-1 = conditions: Homo sapiens, 72 hour incubation
Procedure, shortened: as §1

SK-NEP-1 = conditions: Homo sapiens, 72 hour incubation
Procedure, shortened: as §1

SNU-16 = conditions: Homo sapiens, 72 hour incubation
Procedure, shortened: as §1

SW948 = conditions: Homo sapiens, 72 hour incubation
Procedure, shortened: as §1

TCCSUP = conditions: Homo sapiens, TCC-SUP, 72 hour incubation
Procedure, shortened: as §1

Wi38 = conditions: Homo sapiens, WI-38, 72 hour incubation
Procedure, shortened: as §1

SMILES	pIC50 5637	pIC50 (ARH-77)	pIC50 (AsPC-1)	pIC50 (BHT-101)	pIC50 (C-4 I)	pIC50 (CAMA-1)	pIC50 (Calu6)	pIC50 (D283 Med)	pIC50 (DOHH-2)	pIC50 (DU145)	pIC50 (ES-2)	pIC50 (HCT-15)	pIC50 (HOS)	pIC50 (HT-1197)	pIC50 (HT1376)	pIC50 (HUH-6 Clone 5)	pIC50 (KATO III)	pIC50 (MALME3M)	pIC50 (MES-SA)	pIC50 (MG-63)	other results
CC[C@@H]1CNC2(CC2)CN1C(=O)[C@@H]1C[C@@H](F)CN1C(=O)C1=C(C(C)C)N2C(=N[C@@](C)(c3ccc(Cl)nc3)[C@H]2c2ccc(Cl)c(F)c2)S1 [Compound A, [(5R,6S)-5-(4-Chloro-3-fluorophenyl)-6-(6-chloropyridin-3-yl)-6-methyl-3-(propan-2-yl)-5,6-dihydroimidazo[2,1-b][1,3]thiazol-2-yl][(2S,4R)-2-{[(6R)-6-ethyl-4,7-diazaspiro[2.5]oct-7-yl]carbonyl}-4-fluoropyrrolidin-1-yl]methanone]	< 4.40	< 4.40	< 4.40	< 4.40	< 4.40	< 4.40	< 4.40	6.28	6.91	< 4.40	4.84	4.49	< 4.40	6.63	4.41	6.48	4.44	5.98	6.28	< 4.40	pIC50 (MOLT-3): 6.22; pIC50 (MT-3): 5.95; pIC50 (MX1): 4.41; pIC50 (NALM-6): 6.18; pIC50 (NCI-H460): 6.29; pIC50 (RKO-AS45-1): 6.33; pIC50 (RKOE6): 4.42; pIC50 (RPMI 6666): 5.77; pIC50 (Raji): 4.86; pIC50 (SCC-25): < 4.40; pIC50 (SHP-77): < 4.40; pIC50 (SK-LMS-1): < 4.40; pIC50 (SK-MEL-1): 6.68; pIC50 (SK-NEP-1): < 4.40; pIC50 (SNU-16): 4.55; pIC50 (SW948): < 4.40; pIC50 (TCCSUP): < 4.40; pIC50 (Wi38): 6.77
CC1(C)CCC2(CC1)N[C@@H](C(=O)N[C@@H]1CC[C@@H](C(N)=O)OC1)[C@H](c1ccnc(Cl)c1F)[C@]21C(=O)Nc2cc(Cl)ccc21 [Compound B, (3′R,4′S,5′R)—N-[(3R,6S)-6-carbamoyltetrahydro-2H-pyran-3-yl]-6″-chloro-4′-(2-chloro-3-fluoropyridin-4-yl)-4,4-dimethyl-2″-oxo-1″,2″-dihydrodispiro[cyclohexane-1,2′-pyrrolidine-3′,3″-indole]-5′-carboxamide]	< 5.00	5.12	< 5.00	< 5.00	5.14	< 5.00	5.27	7.09	7.54	5.10	5.20	< 5.00	< 5.00	6.87	< 5.00	7.14	< 5.00	7.06	7.19	< 5.00	pIC50 (MOLT-3): 7.48; pIC50 (MT-3): 6.79; pIC50 (MX1): 5.04; pIC50 (NALM-6): 7.19; pIC50 (NCI-H460): 7.18; pIC50 (RKO-AS45-1): 7.13; pIC50 (RKOE6): 5.12; pIC50 (RPMI 6666): 7.10; pIC50 (Raji): 5.27; pIC50 (SCC-25): 5.01; pIC50 (SHP-77): 5.08; pIC50 (SK-LMS-1): < 5.00; pIC50 (SK-MEL-1): 7.53; pIC50 (SK-NEP-1): < 5.00; pIC50 (SNU-16): 5.00; pIC50 (SW948): < 5.00; pIC50 (TCCSUP): < 5.00; pIC50 (Wi38): 7.42
